Laboratory results published in US7417027B2, “Linear and cyclic melanocortin receptor-specific peptides” (Palatin Technologies, Inc., priority 2001, dated 2008).
pKi: −log10 of the molar value. Non-standard residues stand in square brackets, D forms with d. Residues, ends and D or L forms follow the SMILES beside them. *: point of attachment. dPhe(4-Cl) = N[C@H](Cc1ccc(Cl)cc1)C(=O)O; d2Nal = N[C@H](Cc1ccc2ccccc2c1)C(=O)O; Nle = CCCC[C@H](N)C(=O)O; Ahp = NCCCCCCC(=O)O; Bn = c1ccc(C*)cc1

Columns and labels:
MC1-R = MC1-R (Mus musculus, UniProt Q01727); assay: Competitive inhibition binding assay, 125I-NDP-alpha-MSH, B-16 mouse melanoma cell membranes; conditions: for percent inhibition of 125I-NDP-alpha-MSH binding, MC1-R (B-16): B-16 mouse melanoma cell membranes, 0.4 nM 125I-NDP-alpha-MSH, mean of triplicate, peptide concentration not given; for pKi: B-16 cells, read-out: Ki MC-1 B-16; for MC1-R (B-16) inhibition of 125I-NDP-alpha-MSH binding: peptide conc. 1 μM
hMC5-R = target: T1, hMC5-R (Homo sapiens, UniProt P33032); assay: Competitive inhibition binding assay, 125I-NDP-alpha-MSH, hMC5-R membranes; conditions: for percent inhibition of 125I-NDP-alpha-MSH binding, MC5-R: hMC5-R membranes, 0.4 nM 125I-NDP-alpha-MSH, mean of triplicate, peptide concentration not given; for pKi: membranes, read-out: Ki MC-5 Mem
T1 construct: expressed in transfected cells

MC4-R [1] = target: T2, MC4-R (Homo sapiens, UniProt P32245); assay: Competitive inhibition binding assay, 125I-NDP-alpha-MSH, hMC4-R membranes; parameters: expressed in transfected cells; conditions: for percent inhibition of 125I-NDP-alpha-MSH binding, MC4-R: hMC4-R membranes, 0.4 nM 125I-NDP-alpha-MSH, mean of triplicate, peptide concentration not given; for pKi: membranes, read-out: Ki MC-4 Mem
hMC3-R = target: T3, hMC3-R (Homo sapiens, UniProt P41968); assay: Competitive inhibition binding assay, 125I-NDP-alpha-MSH, hMC3-R membranes; conditions: for percent inhibition of 125I-NDP-alpha-MSH binding, MC3-R: hMC3-R membranes, 0.4 nM 125I-NDP-alpha-MSH, mean of triplicate, peptide concentration not given; for pKi: membranes, read-out: Ki MC-3 Mem
T3 construct: expressed in transfected cells

MC4-R [2] = target: T2, MC4-R; assay: Functional evaluation: intracellular cAMP accumulation in HEK-293 cells expressing MC4-R (agonist/antagonist status); format: cell-based; parameters: expressed in transfected cells; host or cells: HEK-293; conditions: with or without alpha-MSH, 1 hour at 37° C
Protocol: The Ki (nM) of certain peptides were determined, as was the agonist/antagonist status with respect to MC4-R. Functional evaluation of peptides at MC4-R was performed by measuring the accumulation of intracellular cAMP in HEK-293 cells expressing MC4-R. Antagonistic activity was determined by measuring the inhibition of α-MSH-induced cAMP levels following exposure to the compounds. Cells, suspended in Earle's Balanced Salt Solution containing 10 mM HEPES, pH 7.5, 5 mM MgCl2, 1 mM glutamine, 0.1% albumin and 0.6 mM 3-isobutyl-1-methyl-xanthine, a phosphodiesterase inhibitor, were plated in 96 well plates at a density of 0.5×10^5 cells per well. Cells were incubated with the test peptides in the presence or absence of α-MSH for 1 hour at 37° C. cAMP levels were measured by EIA (Amersham) in the cell lysates. Data analysis and EC50 values were determined using nonlinear regression analysis with Prism Graph-Pad software.

T1 sequence (P33032 whole entry): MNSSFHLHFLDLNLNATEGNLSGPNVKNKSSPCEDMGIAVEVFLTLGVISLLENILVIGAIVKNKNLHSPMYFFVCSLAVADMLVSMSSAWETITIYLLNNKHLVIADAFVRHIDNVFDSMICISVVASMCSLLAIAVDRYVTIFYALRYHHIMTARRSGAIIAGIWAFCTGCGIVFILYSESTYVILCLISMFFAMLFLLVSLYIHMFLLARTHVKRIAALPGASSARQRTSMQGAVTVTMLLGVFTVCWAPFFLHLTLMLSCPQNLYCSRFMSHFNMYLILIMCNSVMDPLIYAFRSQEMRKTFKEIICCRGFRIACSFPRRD
T2 sequence (P32245 whole entry): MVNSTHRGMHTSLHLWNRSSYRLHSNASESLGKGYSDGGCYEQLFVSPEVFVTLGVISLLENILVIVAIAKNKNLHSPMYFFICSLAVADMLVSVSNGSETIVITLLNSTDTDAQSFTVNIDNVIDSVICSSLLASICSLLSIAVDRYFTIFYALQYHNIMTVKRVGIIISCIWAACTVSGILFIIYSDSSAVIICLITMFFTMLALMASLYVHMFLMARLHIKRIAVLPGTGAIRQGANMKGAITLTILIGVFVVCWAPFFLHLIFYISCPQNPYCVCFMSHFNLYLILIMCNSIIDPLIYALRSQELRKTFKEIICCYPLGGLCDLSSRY
Chain of MC1-R (Q01727 whole entry): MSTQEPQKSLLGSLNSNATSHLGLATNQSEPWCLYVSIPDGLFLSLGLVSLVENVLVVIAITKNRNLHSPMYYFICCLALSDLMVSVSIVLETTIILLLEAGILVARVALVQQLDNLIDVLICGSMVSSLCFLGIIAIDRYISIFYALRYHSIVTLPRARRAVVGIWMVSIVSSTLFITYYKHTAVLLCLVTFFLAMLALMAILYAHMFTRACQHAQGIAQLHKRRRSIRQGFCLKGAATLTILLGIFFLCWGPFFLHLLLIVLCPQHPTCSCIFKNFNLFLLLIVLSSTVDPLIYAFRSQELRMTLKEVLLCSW
T3 sequence (P41968 whole entry): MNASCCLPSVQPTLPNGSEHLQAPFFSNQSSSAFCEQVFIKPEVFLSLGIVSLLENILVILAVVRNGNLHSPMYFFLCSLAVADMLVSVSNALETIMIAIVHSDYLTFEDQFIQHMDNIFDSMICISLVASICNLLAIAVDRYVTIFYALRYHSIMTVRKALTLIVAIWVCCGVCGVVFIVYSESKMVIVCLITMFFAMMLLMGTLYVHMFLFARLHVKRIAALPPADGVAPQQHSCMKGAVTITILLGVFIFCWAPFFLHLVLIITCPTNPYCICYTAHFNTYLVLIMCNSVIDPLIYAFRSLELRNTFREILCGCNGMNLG

2′-naphthylacetyl-Ala-D-Phe(4-Cl)-Arg-Trp-NH2
percent inhibition of 125I-NDP-alpha-MSH binding, MC1-R (B-16) (MC1-R): 45%

2′-naphthylacetyl-D-Phe(4-Cl)-Arg-Trp-NH2
percent inhibition of 125I-NDP-alpha-MSH binding, MC5-R (hMC5-R): 58%

2′-naphthylacetyl-Inp-D-Phe(4-Cl)-Arg-Trp-NH2
percent inhibition of 125I-NDP-alpha-MSH binding, MC4-R (MC4-R [1]): 58%

2′-naphthylacetyl-Tle-D-Phe(4-Cl)-Arg-Trp-NH2
percent inhibition of 125I-NDP-alpha-MSH binding, MC1-R (B-16) (MC1-R): 67%

2′-naphthylacetyl-beta-Ala-D-Nal 2-Arg-Trp-NH2
percent inhibition of 125I-NDP-alpha-MSH binding, MC3-R (hMC3-R): 58%

3′,4′-Cl2phenylacetyl-Ala-D-Phe(4-Cl)-Arg-2′-(4″-methylphenyl)ethylamide
percent inhibition of 125I-NDP-alpha-MSH binding, MC5-R (hMC5-R): -6%

3′,4′-Cl2phenylacetyl-Ala-D-Phe(4-Cl)-Lys-Trp-NH2
percent inhibition of 125I-NDP-alpha-MSH binding, MC1-R (B-16) (MC1-R): 45%

3′-CF3phenyl-acetyl-Ala-D-Phe(4-Cl)-Arg-Trp-NH2
percent inhibition of 125I-NDP-alpha-MSH binding, MC3-R (hMC3-R): 101%

3′-CF3phenylacetyl-Ala-D-Phe(4-Cl)-Lys-Trp-NH2
percent inhibition of 125I-NDP-alpha-MSH binding, MC5-R (hMC5-R): 67%

4′-biphenyl-acetyl-Ala-D-Phe(4-Cl)-Arg-Trp-NH2
percent inhibition of 125I-NDP-alpha-MSH binding, MC5-R (hMC5-R): 37% | percent inhibition of 125I-NDP-alpha-MSH binding, MC3-R (hMC3-R): 54% | percent inhibition of 125I-NDP-alpha-MSH binding, MC1-R (B-16) (MC1-R): 0% | percent inhibition of 125I-NDP-alpha-MSH binding, MC4-R (MC4-R [1]): 88%

4′-phenylbutylaminocarbonyl-D-Phe(4-Cl)-Arg-Trp-NH2
percent inhibition of 125I-NDP-alpha-MSH binding, MC4-R (MC4-R [1]): 45%

7′-amino-heptanoyl-Ala-D-Phe(4-Cl)-Arg-Trp-NH2
percent inhibition of 125I-NDP-alpha-MSH binding, MC1-R (B-16) (MC1-R): 58%

7′-amino-heptanoyl-Ser(Bzl)-D-Phe(4-Cl)-Arg-2′,4′-dichlorobenzylamide
percent inhibition of 125I-NDP-alpha-MSH binding, MC5-R (hMC5-R): -6%

7′-amino-heptanoyl-Ser(Bzl)-D-Phe(4-Cl)-Arg-2′-(4″-methylphenyl)ethylamide
percent inhibition of 125I-NDP-alpha-MSH binding, MC3-R (hMC3-R): 67%

7′-amino-heptanoyl-Ser(Bzl)-D-Phe(4-Cl)-Arg-4-phenyl-piperidine-4-carbonamide
percent inhibition of 125I-NDP-alpha-MSH binding, MC5-R (hMC5-R): 25% | percent inhibition of 125I-NDP-alpha-MSH binding, MC3-R (hMC3-R): 2% | percent inhibition of 125I-NDP-alpha-MSH binding, MC1-R (B-16) (MC1-R): 5% | percent inhibition of 125I-NDP-alpha-MSH binding, MC4-R (MC4-R [1]): 13%

7′-amino-heptanoyl-Ser(Bzl)-D-Phe(4-Cl)-Arg-Histamide
percent inhibition of 125I-NDP-alpha-MSH binding, MC5-R (hMC5-R): -2%

7′-amino-heptanoyl-Ser(Bzl)-D-Phe(4-Cl)-Arg-Tic-NH2
percent inhibition of 125I-NDP-alpha-MSH binding, MC1-R (B-16) (MC1-R): 45%

7′-amino-heptanoyl-Ser(Bzl)-D-Phe(4-Cl)-Arg-Trp-Asp-OH
percent inhibition of 125I-NDP-alpha-MSH binding, MC4-R (MC4-R [1]): 67%

7′-amino-heptanoyl-Ser(Bzl)-D-Phe(4-Cl)-Arg-Trp-OH
percent inhibition of 125I-NDP-alpha-MSH binding, MC4-R (MC4-R [1]): 67%

7′-amino-heptanoyl-Ser(Bzl)-D-Phe(4-Cl)-alpha-(N-amidino-4′-piperidine)Gly-Trp-NH2
percent inhibition of 125I-NDP-alpha-MSH binding, MC5-R (hMC5-R): 16% | percent inhibition of 125I-NDP-alpha-MSH binding, MC3-R (hMC3-R): 8% | percent inhibition of 125I-NDP-alpha-MSH binding, MC1-R (B-16) (MC1-R): 3% | percent inhibition of 125I-NDP-alpha-MSH binding, MC4-R (MC4-R [1]): 26%

N=C(N)NCCC[C@H](NC(=O)[C@@H](Cc1ccc2ccccc2c1)NC(=O)[C@H](COCc1ccccc1)NC(=O)CCCCCCN)C(=O)N[C@H](Cc1c[nH]c2ccccc12)C(N)=O [7′-amino-heptanoyl-Ser(Bzl)-D-Nal 2-Arg-D-Trp-NH2] (H-[Ahp]S(Bn)[d2Nal]R[dW]-NH2)
percent inhibition of 125I-NDP-alpha-MSH binding, MC5-R (hMC5-R): 82% | pKi (hMC5-R): 7.05 | percent inhibition of 125I-NDP-alpha-MSH binding, MC3-R (hMC3-R): 86% | pKi (hMC3-R): 7.15 | pKi (MC1-R): 5.89 | percent inhibition of 125I-NDP-alpha-MSH binding, MC1-R (B-16) (MC1-R): -8% | HEK-293 (MC4-R) cells Classification (MC4-R [2]): Antagonist | percent inhibition of 125I-NDP-alpha-MSH binding, MC4-R (MC4-R [1]): 100% | pKi (MC4-R [1]): 8.22

N=C(N)NCCC[C@H](NC(=O)[C@@H](Cc1ccc2ccccc2c1)NC(=O)[C@H](COCc1ccccc1)NC(=O)CCCCCCN)C(=O)N[C@@H](Cc1c[nH]c2ccccc12)C(N)=O [7′-amino-heptanoyl-Ser(Bzl)-D-Nal 2-Arg-Trp-NH2] (H-[Ahp]S(Bn)[d2Nal]RW-NH2)
percent inhibition of 125I-NDP-alpha-MSH binding, MC5-R (hMC5-R): 82% | pKi (hMC5-R): 6.99 | percent inhibition of 125I-NDP-alpha-MSH binding, MC3-R (hMC3-R): 93% | pKi (hMC3-R): 7.30 | pKi (MC1-R): 5.73 | percent inhibition of 125I-NDP-alpha-MSH binding, MC1-R (B-16) (MC1-R): 4% | HEK-293 (MC4-R) cells Classification (MC4-R [2]): Antagonist | percent inhibition of 125I-NDP-alpha-MSH binding, MC4-R (MC4-R [1]): 99% | pKi (MC4-R [1]): 8.40

C[C@H](NC(=O)[C@H](Cc1c[nH]c2ccccc12)NC(=O)[C@H](CCCNC(=N)N)NC(=O)[C@@H](Cc1ccc(Cl)cc1)NC(=O)[C@H](COCc1ccccc1)NC(=O)CCCCCCN)C(N)=O [7′-amino-heptanoyl-Ser(Bzl)-D-Phe(4-Cl)-Arg-Trp-Ala-NH2] (H-[Ahp]S(Bn)[dPhe(4-Cl)]RWA-NH2)
percent inhibition of 125I-NDP-alpha-MSH binding, MC5-R (hMC5-R): 79% | pKi (hMC5-R): 6.95 | percent inhibition of 125I-NDP-alpha-MSH binding, MC3-R (hMC3-R): 93% | pKi (hMC3-R): 7.43 | pKi (MC1-R): 6.85 | HEK-293 (MC4-R) cells Classification (MC4-R [2]): Agonist | percent inhibition of 125I-NDP-alpha-MSH binding, MC4-R (MC4-R [1]): 100% | pKi (MC4-R [1]): 8.70

N=C(N)NCCC[C@H](NC(=O)[C@@H](Cc1ccc(Cl)cc1)NC(=O)[C@H](COCc1ccccc1)NC(=O)CCCCCCN)C(=O)N[C@@H](Cc1c[nH]c2ccccc12)C(=O)N[C@@H](CC(=O)O)C(N)=O [7′-amino-heptanoyl-Ser(Bzl)-D-Phe(4-Cl)-Arg-Trp-Asp-NH2] (H-[Ahp]S(Bn)[dPhe(4-Cl)]RWD-NH2)
percent inhibition of 125I-NDP-alpha-MSH binding, MC5-R (hMC5-R): 48% | pKi (hMC5-R): 6.22 | percent inhibition of 125I-NDP-alpha-MSH binding, MC3-R (hMC3-R): 73% | pKi (hMC3-R): 6.72 | pKi (MC1-R): 6.12 | HEK-293 (MC4-R) cells Classification (MC4-R [2]): Agonist | percent inhibition of 125I-NDP-alpha-MSH binding, MC4-R (MC4-R [1]): 98% | pKi (MC4-R [1]): 8.05

N=C(N)NCCC[C@H](NC(=O)[C@@H](Cc1ccc(Cl)cc1)NC(=O)[C@H](COCc1ccccc1)NC(=O)CCCCCCN)C(=O)N[C@@H](Cc1c[nH]c2ccccc12)C(=O)N[C@@H](CC(=O)O)C(=O)N[C@@H](Cc1ccccc1)C(N)=O [7′-amino-heptanoyl-Ser(Bzl)-D-Phe(4-Cl)-Arg-Trp-Asp-Phe-NH2] (H-[Ahp]S(Bn)[dPhe(4-Cl)]RWDF-NH2)
percent inhibition of 125I-NDP-alpha-MSH binding, MC5-R (hMC5-R): 54% | pKi (hMC5-R): 6.41 | percent inhibition of 125I-NDP-alpha-MSH binding, MC3-R (hMC3-R): 37% | pKi (hMC3-R): 6.50 | pKi (MC1-R): 6.57 | percent inhibition of 125I-NDP-alpha-MSH binding, MC1-R (B-16) (MC1-R): 34% | HEK-293 (MC4-R) cells Classification (MC4-R [2]): Agonist | percent inhibition of 125I-NDP-alpha-MSH binding, MC4-R (MC4-R [1]): 100% | pKi (MC4-R [1]): 7.92

Ac-[Nle]AH[dF]RCW-NH2
MC1-R (B-16) inhibition of 125I-NDP-alpha-MSH binding (MC1-R): 101%

Ac-[Nle]AH[dF]RW-NH2
MC1-R (B-16) inhibition of 125I-NDP-alpha-MSH binding (MC1-R): 101%

Ac-[Nle]AH[dF]RWC-NH2
MC3-R inhibition of 125I-NDP-alpha-MSH binding (hMC3-R; peptide conc. 1 μM): 58%

Ph-(CH2)2NH-CO(CH2)2CO-D-Phe(4-Cl)-Arg-Trp-NH2
percent inhibition of 125I-NDP-alpha-MSH binding, MC1-R (B-16) (MC1-R): 67%
